Assay results reported in ChEMBL document CHEMBL5291721, “A preclinical secondary pharmacology resource illuminates target-adverse drug reaction associations of marketed drugs” (Nat Commun, 2023).

How the values were obtained:
[1] = target: T1, Alpha-2A adrenergic receptor (Homo sapiens, UniProt P08913)
T1 sequence (P08913 whole entry): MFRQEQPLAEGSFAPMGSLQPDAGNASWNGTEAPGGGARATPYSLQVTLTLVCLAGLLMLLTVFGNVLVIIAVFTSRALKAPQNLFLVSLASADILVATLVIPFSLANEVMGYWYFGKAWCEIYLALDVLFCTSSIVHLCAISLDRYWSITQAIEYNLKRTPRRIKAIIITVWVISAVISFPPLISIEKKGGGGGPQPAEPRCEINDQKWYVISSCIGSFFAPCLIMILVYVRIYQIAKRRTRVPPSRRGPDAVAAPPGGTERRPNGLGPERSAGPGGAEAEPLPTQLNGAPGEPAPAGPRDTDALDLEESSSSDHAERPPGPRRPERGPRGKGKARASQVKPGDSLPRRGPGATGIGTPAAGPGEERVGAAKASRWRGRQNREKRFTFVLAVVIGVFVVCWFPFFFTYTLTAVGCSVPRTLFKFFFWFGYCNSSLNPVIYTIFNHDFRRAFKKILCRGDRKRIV

[2] = target: Sodium-dependent noradrenaline transporter (Homo sapiens, UniProt P23975)
[3] = target: cGMP-inhibited 3',5'-cyclic phosphodiesterase 3A (Homo sapiens, UniProt Q14432); assay type: functional
[4] = target: Voltage-gated inwardly rectifying potassium channel KCNH2 (Homo sapiens, UniProt Q12809); assay type: functional; settings: read-out: AC50
[5] = target: Vascular endothelial growth factor receptor 2 (Homo sapiens, UniProt P35968); assay type: functional
Acetylcholinesterase = Acetylcholinesterase (Homo sapiens, UniProt P22303); assay type: functional
Prothrombin = Prothrombin (Homo sapiens, UniProt P00734); assay type: functional
[6] = target: T2, 5-hydroxytryptamine receptor 1A (Homo sapiens, UniProt P08908)
T2 sequence (P08908 whole entry): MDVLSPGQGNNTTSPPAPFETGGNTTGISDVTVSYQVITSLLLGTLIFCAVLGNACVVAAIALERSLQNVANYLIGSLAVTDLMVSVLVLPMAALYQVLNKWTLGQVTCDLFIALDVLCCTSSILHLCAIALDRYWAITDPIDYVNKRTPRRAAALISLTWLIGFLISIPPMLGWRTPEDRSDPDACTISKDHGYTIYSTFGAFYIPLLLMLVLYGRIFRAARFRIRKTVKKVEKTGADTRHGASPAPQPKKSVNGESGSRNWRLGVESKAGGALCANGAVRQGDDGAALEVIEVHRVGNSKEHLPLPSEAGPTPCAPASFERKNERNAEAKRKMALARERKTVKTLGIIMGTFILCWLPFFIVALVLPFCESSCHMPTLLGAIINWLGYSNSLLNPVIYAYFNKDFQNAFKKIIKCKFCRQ

[7] = target: 3',5'-cyclic-AMP phosphodiesterase 4A (Homo sapiens, UniProt P27815); assay type: functional
[8] = target: T3, Muscarinic acetylcholine receptor M2 (Homo sapiens, UniProt P08172)
T3 sequence (P08172 whole entry): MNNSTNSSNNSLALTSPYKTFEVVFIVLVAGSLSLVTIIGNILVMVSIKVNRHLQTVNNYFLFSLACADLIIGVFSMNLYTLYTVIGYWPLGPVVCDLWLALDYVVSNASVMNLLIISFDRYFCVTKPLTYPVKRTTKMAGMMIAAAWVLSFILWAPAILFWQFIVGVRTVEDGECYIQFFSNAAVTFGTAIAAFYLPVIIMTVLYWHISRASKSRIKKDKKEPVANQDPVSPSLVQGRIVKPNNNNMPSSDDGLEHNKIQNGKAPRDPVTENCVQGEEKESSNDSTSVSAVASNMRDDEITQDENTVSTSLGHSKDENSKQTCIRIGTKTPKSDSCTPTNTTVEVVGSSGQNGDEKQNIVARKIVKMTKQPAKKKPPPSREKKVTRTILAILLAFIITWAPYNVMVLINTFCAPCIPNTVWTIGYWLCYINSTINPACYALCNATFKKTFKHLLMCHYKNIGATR

[9] = target: T4, Amine oxidase [flavin-containing] A (Homo sapiens, UniProt P21397); assay type: functional
T4 sequence (P21397 whole entry): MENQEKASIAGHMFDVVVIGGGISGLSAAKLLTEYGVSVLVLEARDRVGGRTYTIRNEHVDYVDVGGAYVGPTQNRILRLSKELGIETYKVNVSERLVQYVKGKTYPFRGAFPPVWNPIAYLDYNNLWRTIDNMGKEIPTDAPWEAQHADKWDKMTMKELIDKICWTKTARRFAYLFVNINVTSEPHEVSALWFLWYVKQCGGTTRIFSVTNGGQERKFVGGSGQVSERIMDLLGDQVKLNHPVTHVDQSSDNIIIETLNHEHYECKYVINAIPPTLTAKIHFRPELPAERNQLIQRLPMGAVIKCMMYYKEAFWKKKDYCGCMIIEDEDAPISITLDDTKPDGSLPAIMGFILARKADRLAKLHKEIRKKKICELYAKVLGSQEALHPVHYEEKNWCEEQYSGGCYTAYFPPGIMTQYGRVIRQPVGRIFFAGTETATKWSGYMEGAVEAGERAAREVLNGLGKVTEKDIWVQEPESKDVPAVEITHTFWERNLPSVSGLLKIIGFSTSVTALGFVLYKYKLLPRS

[10] = target: T5, Prostaglandin G/H synthase 1 (Homo sapiens, UniProt P23219); assay type: functional
[11] = target: Sodium-dependent serotonin transporter (Homo sapiens, UniProt P31645)
Thromboxane A2 receptor = target: T6, Thromboxane A2 receptor (Homo sapiens, UniProt P21731); assay type: functional, cell-based
T6 sequence (P21731 whole entry): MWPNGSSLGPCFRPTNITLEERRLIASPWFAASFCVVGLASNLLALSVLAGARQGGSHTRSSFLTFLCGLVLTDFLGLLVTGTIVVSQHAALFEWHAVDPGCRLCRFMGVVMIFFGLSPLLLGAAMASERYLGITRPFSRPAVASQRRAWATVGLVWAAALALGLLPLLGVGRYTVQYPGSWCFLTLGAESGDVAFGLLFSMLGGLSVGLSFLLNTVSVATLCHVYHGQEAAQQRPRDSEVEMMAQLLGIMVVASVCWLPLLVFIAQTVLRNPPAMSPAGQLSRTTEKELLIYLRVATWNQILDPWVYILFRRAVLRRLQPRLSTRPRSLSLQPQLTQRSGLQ

[12] = target: T5, Prostaglandin G/H synthase 1; assay type: functional; remark: listed apart in the source
D(3) dopamine receptor = D(3) dopamine receptor (Homo sapiens, UniProt P35462)
Further: assay procedure not described here.

Chain of Voltage-gated inwardly rectifying potassium channel KCNH2 (Q12809 whole entry): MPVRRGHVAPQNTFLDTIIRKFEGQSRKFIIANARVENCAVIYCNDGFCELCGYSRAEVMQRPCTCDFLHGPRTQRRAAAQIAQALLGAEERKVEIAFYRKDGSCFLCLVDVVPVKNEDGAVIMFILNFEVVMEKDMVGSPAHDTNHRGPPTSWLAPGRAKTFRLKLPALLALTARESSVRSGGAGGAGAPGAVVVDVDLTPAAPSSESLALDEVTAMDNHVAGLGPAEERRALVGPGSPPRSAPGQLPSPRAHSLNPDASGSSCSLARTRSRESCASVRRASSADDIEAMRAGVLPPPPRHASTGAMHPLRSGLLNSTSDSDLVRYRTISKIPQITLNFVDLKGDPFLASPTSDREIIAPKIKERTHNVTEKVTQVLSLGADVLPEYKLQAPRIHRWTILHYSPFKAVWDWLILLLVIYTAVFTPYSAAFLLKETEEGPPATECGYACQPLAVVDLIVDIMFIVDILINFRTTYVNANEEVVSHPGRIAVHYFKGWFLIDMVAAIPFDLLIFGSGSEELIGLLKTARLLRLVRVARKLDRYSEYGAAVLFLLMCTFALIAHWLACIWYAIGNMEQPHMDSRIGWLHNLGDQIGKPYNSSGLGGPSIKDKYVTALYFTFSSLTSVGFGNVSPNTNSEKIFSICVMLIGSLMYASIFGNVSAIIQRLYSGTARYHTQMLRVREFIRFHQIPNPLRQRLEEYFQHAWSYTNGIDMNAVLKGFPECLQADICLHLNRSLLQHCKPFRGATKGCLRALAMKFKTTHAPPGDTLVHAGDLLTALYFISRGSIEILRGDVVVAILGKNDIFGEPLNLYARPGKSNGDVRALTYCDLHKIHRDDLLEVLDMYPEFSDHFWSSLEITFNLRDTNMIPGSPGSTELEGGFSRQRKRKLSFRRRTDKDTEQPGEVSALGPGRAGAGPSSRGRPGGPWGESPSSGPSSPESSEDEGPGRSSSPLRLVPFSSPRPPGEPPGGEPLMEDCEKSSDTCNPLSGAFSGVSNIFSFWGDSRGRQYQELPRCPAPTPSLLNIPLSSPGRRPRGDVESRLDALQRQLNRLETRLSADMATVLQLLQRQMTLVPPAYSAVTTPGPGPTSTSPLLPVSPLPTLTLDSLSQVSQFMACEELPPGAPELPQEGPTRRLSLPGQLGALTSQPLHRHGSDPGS
Chain of Vascular endothelial growth factor receptor 2 (P35968 whole entry): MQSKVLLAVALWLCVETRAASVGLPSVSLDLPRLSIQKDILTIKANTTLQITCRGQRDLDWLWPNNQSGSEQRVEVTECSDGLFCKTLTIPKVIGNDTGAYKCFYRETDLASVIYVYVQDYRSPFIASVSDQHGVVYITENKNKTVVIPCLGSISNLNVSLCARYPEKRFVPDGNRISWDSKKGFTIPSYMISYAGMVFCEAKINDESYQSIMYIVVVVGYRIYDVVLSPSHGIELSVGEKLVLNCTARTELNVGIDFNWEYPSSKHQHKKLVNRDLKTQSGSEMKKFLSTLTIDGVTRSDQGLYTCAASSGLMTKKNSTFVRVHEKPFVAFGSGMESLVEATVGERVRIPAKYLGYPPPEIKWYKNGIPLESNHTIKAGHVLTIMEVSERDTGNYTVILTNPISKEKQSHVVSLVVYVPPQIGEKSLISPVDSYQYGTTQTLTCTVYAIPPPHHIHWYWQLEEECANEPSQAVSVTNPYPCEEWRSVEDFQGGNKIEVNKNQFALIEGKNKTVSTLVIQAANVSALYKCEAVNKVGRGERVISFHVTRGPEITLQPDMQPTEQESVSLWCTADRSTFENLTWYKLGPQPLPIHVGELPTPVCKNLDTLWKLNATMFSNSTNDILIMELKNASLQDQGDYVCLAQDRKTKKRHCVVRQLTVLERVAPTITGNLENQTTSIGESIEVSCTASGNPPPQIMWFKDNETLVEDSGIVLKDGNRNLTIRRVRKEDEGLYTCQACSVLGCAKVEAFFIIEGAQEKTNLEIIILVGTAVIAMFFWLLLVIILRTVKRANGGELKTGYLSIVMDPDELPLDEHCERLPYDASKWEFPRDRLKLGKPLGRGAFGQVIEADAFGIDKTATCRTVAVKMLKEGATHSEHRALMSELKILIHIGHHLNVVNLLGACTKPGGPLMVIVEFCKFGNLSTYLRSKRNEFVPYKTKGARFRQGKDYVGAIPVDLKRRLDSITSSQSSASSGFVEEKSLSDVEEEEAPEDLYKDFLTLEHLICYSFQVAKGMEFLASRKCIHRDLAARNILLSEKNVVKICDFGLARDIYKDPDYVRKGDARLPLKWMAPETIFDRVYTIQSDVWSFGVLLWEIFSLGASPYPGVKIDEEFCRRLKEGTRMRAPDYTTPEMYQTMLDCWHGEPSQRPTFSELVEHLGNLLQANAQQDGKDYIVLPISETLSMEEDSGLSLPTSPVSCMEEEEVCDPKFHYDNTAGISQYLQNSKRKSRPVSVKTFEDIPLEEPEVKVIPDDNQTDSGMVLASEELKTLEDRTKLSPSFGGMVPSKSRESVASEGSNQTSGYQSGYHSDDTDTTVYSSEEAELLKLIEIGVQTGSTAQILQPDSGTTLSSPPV
Chain of Sodium-dependent serotonin transporter (P31645 whole entry): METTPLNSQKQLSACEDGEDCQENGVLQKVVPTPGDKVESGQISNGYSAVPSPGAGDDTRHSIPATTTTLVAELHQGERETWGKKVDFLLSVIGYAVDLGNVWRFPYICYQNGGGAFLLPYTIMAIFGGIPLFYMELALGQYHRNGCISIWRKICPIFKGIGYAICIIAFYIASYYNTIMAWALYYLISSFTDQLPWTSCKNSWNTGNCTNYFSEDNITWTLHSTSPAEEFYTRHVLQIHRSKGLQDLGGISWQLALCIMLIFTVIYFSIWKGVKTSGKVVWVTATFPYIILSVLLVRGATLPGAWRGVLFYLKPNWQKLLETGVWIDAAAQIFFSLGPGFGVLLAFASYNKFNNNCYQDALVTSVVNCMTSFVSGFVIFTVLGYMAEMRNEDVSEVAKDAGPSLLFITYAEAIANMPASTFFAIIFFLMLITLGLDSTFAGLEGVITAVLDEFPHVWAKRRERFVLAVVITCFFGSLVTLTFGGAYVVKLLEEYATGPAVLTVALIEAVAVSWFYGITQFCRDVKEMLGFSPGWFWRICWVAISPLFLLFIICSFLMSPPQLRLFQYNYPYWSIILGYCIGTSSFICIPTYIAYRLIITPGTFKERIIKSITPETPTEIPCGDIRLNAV
Chain of 3',5'-cyclic-AMP phosphodiesterase 4A (P27815 whole entry): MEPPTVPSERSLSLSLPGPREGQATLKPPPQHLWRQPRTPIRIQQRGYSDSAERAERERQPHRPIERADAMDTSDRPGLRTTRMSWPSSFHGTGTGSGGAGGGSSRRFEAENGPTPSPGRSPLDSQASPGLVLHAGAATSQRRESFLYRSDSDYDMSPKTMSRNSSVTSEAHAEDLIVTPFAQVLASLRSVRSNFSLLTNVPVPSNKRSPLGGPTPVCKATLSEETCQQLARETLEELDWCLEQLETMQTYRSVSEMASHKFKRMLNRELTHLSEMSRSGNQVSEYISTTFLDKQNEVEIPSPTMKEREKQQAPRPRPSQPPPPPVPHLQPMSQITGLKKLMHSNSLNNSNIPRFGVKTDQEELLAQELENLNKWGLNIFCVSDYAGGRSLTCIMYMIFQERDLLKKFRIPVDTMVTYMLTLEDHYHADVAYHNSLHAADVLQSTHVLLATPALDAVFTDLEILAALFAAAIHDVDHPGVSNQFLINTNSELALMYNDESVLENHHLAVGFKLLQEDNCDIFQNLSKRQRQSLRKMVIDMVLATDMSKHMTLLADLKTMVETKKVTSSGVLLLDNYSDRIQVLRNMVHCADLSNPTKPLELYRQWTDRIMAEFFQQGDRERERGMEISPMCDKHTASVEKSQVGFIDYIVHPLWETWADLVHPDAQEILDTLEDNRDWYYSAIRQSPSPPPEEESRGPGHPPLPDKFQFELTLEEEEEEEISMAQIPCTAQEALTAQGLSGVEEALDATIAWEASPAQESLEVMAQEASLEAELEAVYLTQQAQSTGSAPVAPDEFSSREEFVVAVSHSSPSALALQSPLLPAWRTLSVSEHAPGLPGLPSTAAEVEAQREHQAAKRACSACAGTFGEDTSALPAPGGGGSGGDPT
Chain of Acetylcholinesterase (P22303 whole entry): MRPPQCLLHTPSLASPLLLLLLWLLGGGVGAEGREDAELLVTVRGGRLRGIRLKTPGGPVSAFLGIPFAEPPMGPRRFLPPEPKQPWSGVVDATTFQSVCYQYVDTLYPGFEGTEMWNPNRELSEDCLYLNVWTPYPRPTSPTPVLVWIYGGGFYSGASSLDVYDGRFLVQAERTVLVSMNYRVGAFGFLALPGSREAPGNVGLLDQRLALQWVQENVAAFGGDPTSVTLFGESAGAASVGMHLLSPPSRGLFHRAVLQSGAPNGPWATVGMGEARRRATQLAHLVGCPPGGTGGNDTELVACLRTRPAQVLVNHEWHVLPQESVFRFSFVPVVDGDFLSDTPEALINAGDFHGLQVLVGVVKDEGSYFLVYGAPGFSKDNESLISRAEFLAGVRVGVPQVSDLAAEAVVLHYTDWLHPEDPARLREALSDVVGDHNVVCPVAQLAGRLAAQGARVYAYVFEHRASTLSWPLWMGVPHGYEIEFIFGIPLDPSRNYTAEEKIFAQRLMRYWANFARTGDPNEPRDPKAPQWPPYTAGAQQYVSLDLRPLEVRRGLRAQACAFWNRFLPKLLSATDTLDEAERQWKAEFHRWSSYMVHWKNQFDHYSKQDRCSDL
Chain of D(3) dopamine receptor (P35462 whole entry): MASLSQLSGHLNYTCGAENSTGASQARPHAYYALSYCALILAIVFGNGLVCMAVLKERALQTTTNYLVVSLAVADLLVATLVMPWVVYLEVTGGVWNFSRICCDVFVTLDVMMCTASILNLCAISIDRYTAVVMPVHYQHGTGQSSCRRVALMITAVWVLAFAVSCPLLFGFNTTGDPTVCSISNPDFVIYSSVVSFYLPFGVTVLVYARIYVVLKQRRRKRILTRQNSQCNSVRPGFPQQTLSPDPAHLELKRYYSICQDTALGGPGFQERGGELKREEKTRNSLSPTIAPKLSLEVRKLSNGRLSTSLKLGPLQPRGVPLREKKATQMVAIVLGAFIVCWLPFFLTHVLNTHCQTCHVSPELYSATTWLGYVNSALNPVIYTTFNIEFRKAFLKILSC

Compound | AC50 [1] [µM] | AC50 [2] [µM] | AC50 [3] [µM] | AC50 [4] [µM] | AC50 [5] [µM] | AC50 (Acetylcholinesterase) [µM] | AC50 (Prothrombin) [µM] | AC50 [6] [µM] | AC50 [7] [µM] | AC50 [8] [µM] | AC50 [9] [µM] | AC50 [10] [µM] | AC50 [11] [µM] | AC50 (Thromboxane A2 receptor) [µM] | AC50 [12] [µM] | AC50 (D(3) dopamine receptor) [µM]
CC(C)Cc1ccc(C(C)C(=O)OCc2ccccn2)cc1 (configuration not stated) [IBUPROFEN PICONOL] | > 30 | 22.1 | > 30 | > 30 | > 30 | > 30 | > 30 | > 30 | > 30 | > 30 | > 30 | 10.8 | > 30 | > 30 | > 30 | 
CN1CCc2c(c3ccccc3n2Cc2ccccc2)C1 [MEBHYDROLIN] | 0.533 | 8.13 | > 30 | 1 | > 30 | > 30 | > 30 | 1.04 | > 30 | 0.268 | > 30 | > 30 | 28.5 | > 30 | > 30 | 1.19
CCOc1ccc(Cc2nccc3cc(OCC)c(OCC)cc23)cc1OCC [ETHAVERINE] | 20.9 | > 30 | 3.69 | 13 | > 30 | > 30 | > 30 | > 30 | 0.466 | > 30 | > 30 | > 10 | > 30 | > 30 | > 30 | 25.5
CC(NCCC(c1ccccc1)c1ccccc1)c1ccccc1 (configuration not stated) [FENDILINE] | 5.89 | 3.26 | > 30 | 1.3 | > 30 | > 30 | > 3 | 14.9 | > 30 | 6.17 | > 30 | > 30 | 7.94 | 20.7 | > 30 | 9.87
O=C(OOC(=O)c1ccccc1)c1ccccc1 [BENZOYL PEROXIDE] | > 30 | > 30 | > 30 | > 30 |  | > 30 | 9.02 | > 30 | > 30 | > 30 | > 30 | > 30 | > 30 | > 30 | > 30 | > 30
COCC(=O)O[C@]1(CCN(C)CCCc2nc3ccccc3[nH]2)CCc2cc(F)ccc2[C@@H]1C(C)C [MIBEFRADIL] | 23.4 | 20.2 | > 30 |  | > 30 | > 30 | > 30 | 0.746 | > 30 | 3.85 | > 30 | > 30 | 22.8 | 21.9 | > 30 | 0.825
CCOC1O[C@H]([C@@H](COCc2ccccc2)OCc2ccccc2)[C@H](OCc2ccccc2)[C@H]1O (some centres not stated) [TRIBENOSIDE] | > 30 | > 30 | > 30 | > 30 | > 30 | > 30 | > 30 | > 30 | > 30 | > 30 | > 30 | > 30 | > 30 | > 30 | > 30 | 
N[C@@H](Cc1ccc(O)cc1)C(=O)O [TYROSINE] | > 30 | > 30 | > 30 |  | > 30 | > 30 | > 30 | > 30 | > 30 | > 30 | > 30 | > 30 | > 30 | > 30 | > 30 | > 30
CC1(C)C[C@@H]1C(=O)N/C(=C\CCCCSC[C@H](N)C(=O)O)C(=O)O [CILASTATIN] | > 30 | > 30 | > 30 | > 30 |  | > 30 | > 30 | > 30 | > 30 | > 30 | > 30 | > 30 | > 30 | > 30 | > 30 | > 30
CCn1c(=O)c2c(nc(/C=C/c3ccc(OC)c(OC)c3)n2C)n(CC)c1=O [ISTRADEFYLLINE] | > 10 | > 30 | > 30 | > 30 | > 10 | > 30 |  | 10.5 | 2.77 | > 30 | > 30 | > 30 | > 30 | > 30 | > 30 | 
CC1(C)S[C@@H]2[C@H](NC(=O)[C@H](NC(=O)c3cnc4cccnc4c3O)c3ccccc3)C(=O)N2[C@H]1C(=O)O [APALCILLIN] | > 30 | > 30 | > 30 |  | > 30 | > 30 | > 30 | > 30 | > 30 | > 30 | > 30 | 14.6 | > 30 | > 30 | 17.6 | > 30
COc1cc(C[C@@H]2NCCc3cc(O)c(O)cc32)cc(OC)c1OC [TRETOQUINOL] | 0.829 | > 30 | > 30 | > 30 | > 30 | > 30 | > 30 | 7.31 | > 30 | > 30 | > 30 | 5.31 | > 30 |  | > 30 | 1.81
